The text below walks through data of US9795140B2, “Molecules having pesticidal utility, and intermediates, compositions, and processes, related thereto” (priority 2015, dated 2017).

Common to all, as to format: in vivo
The test system of data set [1] is Beet Armyworm (Spodoptera exigua, LAPHEG). Kind of data set: Bioassay on Beet Armyworm (BAW), 128-well diet tray assay. To be noted: 168 h, 50 μg/cm^2 on artificial diet, second instar larvae, 25° C., five to seven days, average of eight wells, read-out: BAW % Control (or Mortality) rating. The method, boiled down: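 Second-instar larvae, one to five per well, placed on artificial diet surface-treated with 50 μg/cm^2 compound applied in 90:10 acetone-water and dried. Held 5–7 days at 25° C., 14:10 light-dark. Percent mortality recorded per well and averaged over eight wells.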

The subject of data set [2] is Cabbage Looper (Trichoplusia ni, TRIPNI). Kind of data set: Bioassay on Cabbage Looper (CL), 128-well diet tray assay. To be noted: 168 h, 50 μg/cm^2 on artificial diet, second instar larvae, 25° C., five to seven days, average of eight wells, read-out: CL % Control (or Mortality) rating. The method in brief: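 Second-instar T. ni larvae (one to five per well) were placed on artificial diet treated with 50 μg/cm^2 compound, applied in 90:10 acetone-water and dried. Trays were held five to seven days at 25 °C under 14:10 light-dark. Percent mortality per well was averaged over eight wells.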

The test system of data set [3] is Yellow Fever Mosquito (Aedes aegypti, AEDSAE). Kind of data set: Bioassay on Yellow Fever Mosquito (YFM) larvae, 96-well plate. To be noted: about 1 day-old larvae, room temperature, 3 days, scored on mortality. The method, boiled down:
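Aedes aegypti larvae (about 1 day old) in liver-powder water were added to plates dispensed from DMSO master plates (4000 ppm stock) diluted with 90:10 water/acetone; six replicate plates per master. Lidded plates were held at room temperature for 3 days, then each well was scored for mortality.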

What is called mortality is the percentage killed. In the case of `O=C(NCC(F)(F)F)c1cc(NC(=O)C2C(c3cc(F)c(F)c(F)c3)C2(Cl)Cl)ccc1Cl` (stereo not drawn) [F126, 2-Chloro-5-trans-(2,2-dichloro-3-(3,4,5-trifluorophenyl)cyclopropane-1-carboxamido)-N-(2,2,2-trifluoroethyl)benzamide], the mortality at 50 µg/cm2 in data set [1] and in data set [2] was 50 to 100% each time. Further, in data set [3], the “YFM % Control (or Mortality) rating” value was “A (80-100)”.

For the compound `O=C(Nc1ccc(Cl)c(C(=O)N2CCC(F)(F)C2)c1)[C@H]1[C@H](c2cc(Cl)cc(Cl)c2)C1(Cl)Cl` (relative stereo) [F71, trans-2,2-Dichloro-N-(4-chloro-3-(3,3-difluoropyrrolidine-1-carbonyl)phenyl)-3-(3,5-dichlorophenyl)cyclopropane-1-carboxamide], the mortality at 50 µg/cm2 in data set [1] and in data set [2] was 50 to 100% in each case. Moreover, the “YFM % Control (or Mortality) rating” value in data set [3] is recorded as “D (No activity noticed in this bioassay)”.

`O=C(NCc1ccc(-n2cncn2)cc1)c1cc(NC(=O)[C@H]2[C@H](c3cc(Cl)cc(Cl)c3)C2(Cl)Cl)ccc1Cl` (relative stereo) [PF11, trans-N-(4-(1H-1,2,4-Triazol-1-yl)benzyl)-2-chloro-5-(2,2-dichloro-3-(3,5-dichlorophenyl)cyclopropane-1-carboxamido)benzamide]: the mortality at 50 µg/cm2 in data set [1] and in data set [2] was 50 to 100% each time. For the same compound, in data set [3], the “YFM % Control (or Mortality) rating” value is on record as “A (80-100)”.

For the compound `C[C@H](C[S+]([O-])CCC(F)(F)F)NC(=O)c1cc(NC(=O)C2C(c3cc(Cl)cc(Cl)c3)C2(Cl)Cl)ccc1Cl` (stereo in doubt) [PF5, trans-2-Chloro-5-(2,2-dichloro-3-(3,5-dichlorophenyl)cyclopropane-1-carboxamido)-N-((2R)-1-((3,3,3-trifluoropropyl)sulfinyl)propan-2-yl)benzamide], the mortality at 50 µg/cm2 in data set [1] and in data set [2] was 50 to 100% each time. In addition, the “YFM % Control (or Mortality) rating” value in data set [3] was “A (80-100)”.

As for `O=C(NCC(F)(F)F)c1cccc(NC(=O)[C@H]2[C@H](c3cc(Cl)cc(Cl)c3)C2(Cl)Cl)c1` (relative stereo) [F3, trans-3-(2,2-Dichloro-3-(3,5-dichlorophenyl)cyclopropane-1-carboxamido)-N-(2,2,2-trifluoroethyl)benzamide], the mortality at 50 µg/cm2 in data set [1] and in data set [2] was 50 to 100% in each case. For the same compound, the “YFM % Control (or Mortality) rating” value in data set [3] is reported as “A (80-100)”.

Take `O=C(NCC(F)(F)F)c1cc(NC(=O)[C@H]2[C@H](c3ccc(C(F)(F)F)c(Cl)c3)C2(Cl)Cl)ccc1Cl` (relative stereo) [F116, 2-Chloro-5-(trans-2,2-dichloro-3-(3-chloro-4-(trifluoromethyl)phenyl)cyclopropane-1-carboxamido)-N-(2,2,2-trifluoroethyl)benzamide]: the mortality at 50 µg/cm2 in data set [1] and in data set [2] was 50 to 100% in each case. Further, the “YFM % Control (or Mortality) rating” value in data set [3] was “A (80-100)”.

For `CC(NC(=O)c1cc(NC(=O)[C@H]2[C@H](c3cc(Cl)cc(Cl)c3)C2(Cl)Cl)ccc1Cl)c1ccc(F)cc1` (relative stereo) [F96, 2-chloro-5-(trans-2,2-dichloro-3-(3,5-dichlorophenyl)cyclopropane-1-carboxamido)-N-(1-(4-fluorophenyl)ethyl)benzamide], the mortality at 50 µg/cm2 in data set [1] and in data set [2] was 50 to 100% each time. The “YFM % Control (or Mortality) rating” value in data set [3] was “A (80-100)”.

On to `O=C(NCC(F)(F)F)c1cc(NC(=O)[C@H]2[C@H](c3cc(Br)cc(C(F)(F)F)c3)C2(Cl)Cl)ccc1Cl` (relative stereo) [F124, 5-(trans-3-(3-Bromo-5-(trifluoromethyl)phenyl)-2,2-dichlorocyclopropane-1-carboxamido)-2-chloro-N-(2,2,2-trifluoroethyl)benzamide], for which the mortality at 50 µg/cm2 in data set [1] and in data set [2] was 50 to 100% each time. Besides, the “YFM % Control (or Mortality) rating” value in data set [3] is “A (80-100)”.

Take `O=C(NCC(F)(F)F)c1cc(NC(=O)[C@H]2[C@H](c3ccc(Cl)c(C(F)F)c3)C2(Cl)Cl)ccc1Cl` (relative stereo) [F129, 2-Chloro-5-(trans-2,2-dichloro-3-(4-chloro-3-(difluoromethyl)phenyl)cyclopropane-1-carboxamido)-N-(2,2,2-trifluoroethyl)benzamide]: the mortality at 50 µg/cm2 in data set [1] and in data set [2] was 50 to 100% throughout. Further, the “YFM % Control (or Mortality) rating” value in data set [3] is listed as “A (80-100)”.

Turning to `COc1c(Cl)cc([C@H]2[C@H](C(=O)Nc3ccc(Cl)c(C(=O)NCCF)c3)C2(Cl)Cl)cc1Cl` (relative stereo) [F86, trans-2-Chloro-5-(2,2-dichloro-3-(3,5-dichloro-4-methoxyphenyl)cyclopropane-1-carboxamido)-N-(2-fluoroethyl)benzamide], the mortality at 50 µg/cm2 in data set [1] and in data set [2] was 50 to 100% throughout. For the same compound, the “YFM % Control (or Mortality) rating” value in data set [3] is recorded as “B (More than 0-Less than 80)”.

For `O=C(NCC(F)(F)F)c1cc(NC(=O)[C@H]2[C@H](c3ccc(Cl)c(Br)c3)C2(Cl)Cl)ccc1Cl` (relative stereo) [F109, 5-(trans-3-(3-Bromo-4-chlorophenyl)-2,2-dichlorocyclopropane-1-carboxamido)-2-chloro-N-(2,2,2-trifluoroethyl)benzamide], the mortality at 50 µg/cm2 in data set [1] and in data set [2] was 50 to 100% throughout. Besides, in data set [3], the “YFM % Control (or Mortality) rating” value is given as “A (80-100)”.

As for `O=C(NCC(F)(F)F)c1cc(NC(=O)[C@H]2[C@H](c3ccc(C(F)F)c(F)c3)C2(Cl)Cl)ccc1Cl` (relative stereo) [F133, 2-Chloro-5-(trans-2,2-dichloro-3-(4-(difluoromethyl)-3-fluorophenyl)cyclopropane-1-carboxamido)-N-(2,2,2-trifluoroethyl)benzamide], the mortality at 50 µg/cm2 in data set [1] and in data set [2] was 50 to 100% in each case. In addition, the “YFM % Control (or Mortality) rating” value in data set [3] is listed as “A (80-100)”.

With `COc1c(Cl)cc([C@H]2[C@H](C(=O)Nc3ccc(Cl)c(C(=O)NCC(F)(F)F)c3)C2(Cl)Cl)cc1Cl` (relative stereo) [F87, trans-2-Chloro-5-(2,2-dichloro-3-(3,5-dichloro-4-methoxyphenyl)cyclopropane-1-carboxamido)-N-(2,2,2-trifluoroethyl)benzamide], the mortality at 50 µg/cm2 in data set [1] and in data set [2] was 50 to 100% in each case. Moreover, the “YFM % Control (or Mortality) rating” value in data set [3] is reported as “B (More than 0-Less than 80)”.

In the case of `O=C(NCCF)c1cc(NC(=O)[C@H]2[C@H](c3cc(Cl)cc(Cl)c3)C2(Cl)Cl)cc(Cl)c1Cl` (relative stereo) [F92, trans-2,3-Dichloro-5-(2,2-dichloro-3-(3,5-dichlorophenyl)cyclopropane-1-carboxamido)-N-(2-fluoroethyl)benzamide], the mortality at 50 µg/cm2 in data set [1] and in data set [2] was 50 to 100% each time. Besides, the “YFM % Control (or Mortality) rating” value in data set [3] is given as “A (80-100)”.

Turning to `CCOCCNC(=O)c1cc(NC(=O)[C@H]2[C@H](c3cc(Cl)cc(Cl)c3)C2(Cl)Cl)ccc1Cl` (relative stereo) [F54, trans-2-Chloro-5-(2,2-dichloro-3-(3,5-dichlorophenyl)cyclopropane-1-carboxamido)-N-(2-ethoxyethyl)benzamide], the mortality at 50 µg/cm2 in data set [1] and in data set [2] was 50 to 100% in each case. Moreover, the “YFM % Control (or Mortality) rating” value in data set [3] was “B (More than 0-Less than 80)”.
